Format in all cases: cell-based
For assay [1], the system named is bacteria from freshly-collected stimulated whole saliva (biofilm). Description: Mixed culture saliva biofilm on saliva-coated hydroxyapatite discs (medium pH and OD 600 nm). The method, then:
A mixed culture system that utilizes the bacteria from freshly-collected stimulated whole saliva was used. Saliva cell pellets were used to inoculate saliva-coated hydroxyapatite (S-HA) discs. The discs were placed in 24-well cell culture plates and incubated for up to 3 days. Biofilms were exposed to actives on days 2 and 3 (starting at 18 hours), and quantified on day 4. The number of bacteria was determined by spectrophotometric absorbance or optical density (OD) at 600 nm. The five phases of the experiment were: pellicle formation; bacterial attachment; biofilm growth; exposure to actives; and bacterial enumeration. To form the pellicles, HA Discs were ultrasonically washed in deionized water and air-dried, then autoclaved. The discs were placed in a 24 well plate with 1 ml 50% sterile saliva (1 part sterile whole saliva: 1 part saliva buffer, filter sterilize after preparation) for 2 hours with slow agitation at room temperature. The saliva was suctioned and then the discs were transferred to fresh wells for bacterial attachment. The discs were inoculated with salivary bacteria by one of two methods: (1) incubation with saliva bacteria suspended in 50% saliva at a standard OD for 2-h at 37° C.; after the attachment phase the discs are transferred to supplemented saliva growth medium, or (2) direct addition of bacteria with media and incubation. To form the biofilms, the bacterial suspension was removed, and the discs were transferred to fresh wells. One ml of supplemented saliva medium was added and the plate was placed in the incubator for overnight incubation and for the duration of the experiment (up to 72 hours). A stock solution of 1% Magnolia Bark Extract in 60% ethanol was prepared. […] One ml quantities of active ingredients and controls were placed into fresh wells, and the discs transferred to these wells for 5 minutes. The chlorhexidine control exposure was one minute, two times a day to mimic the standard mouth-rinse procedure. The exposure to active ingredient was carried out at 8:00 AM, 12:00 and 4:00 PM. After the timed exposure, the solution was removed and the discs washed twice with PBS and then transferred to fresh medium. For some experiments, the medium used during the day was Tryptic Soy Broth (TSB) with a 50 μl 40% sterile sucrose solution added to each well (to give a 2% sucrose solution). The medium was not replaced after the mid-day exposure. After overnight incubation (day 2), discs were exposed to controls and actives. On day 3 the biofilms were again exposed to tests and controls. On day 4 the discs were removed from the medium, the medium pH was measured to obtain an indication of metabolic activity, and the discs were placed into tubes with 2.5 ml PBS, vortexed for 20s, and then placed into the ultrasonic bath for another 20 sec. The suspension was transferred into cuvettes and the bacterial cell density determined by OD measurements at 600 nm. To evaluate the effect of Magnolia Bark Extract in combination with the surface active agent, sodium lauryl sulfate, five active ingredient solutions were prepared using the procedures described above. […] Also, the MBE solutions were prepared to have a concentration of 500 ppm. Sodium lauryl sulfate was added to two of the Magnolia Bark Extract solutions to obtain SLS concentrations of 0.05% and 0.1% in the Magnolia Bark Extract solutions. The testing with Magnolia Bark Extract described above was repeated with the five solutions.

Another assay concerns S. mutans. Description: MIC and fractional inhibitory index of MBE/surface active agent combinations on S. mutans. The following applies: 24 hours at 37° C. The method, then: (§1) To evaluate the germ-kill efficacy and synergist effect when two or more germ-kill actives are combined, testing was performed to determine the ratio of MBE to surface active agent. […] These dilutions were inoculated with representative oral microorganisms, or incubated saliva, and incubated for 24 hours at 37° C. For each surface active agent, the lowest dilution that was not turbid was registered as the MIC.

In a further assay the test system is incubated saliva. Description: MIC of surface active agents and emulsifiers on incubated saliva. The following applies: for MIC (ppm): incubated saliva, 24 hours at 37° C.; for germ-kill efficacy: assessment in words of Table 9. The method, then:
as §1, with “agent. The germ-kill active and/or surface active agent was dissolved in ethanol or sterile water to give an initial concentration 0.1% to 1%.” for “agent.”, “MIC. The MBC was determined by transferring 10 microliter of liquid from non-turbid tubes to fresh growth media and incubated for 48 hrs.” for “MIC.”

The results in this text go back to patent US7632525B2, “Breath freshening and oral cleansing product with magnolia bark extract in combination with surface active agents” (Wm. Wrigley Jr. Company, priority 2002, dated 2009).

For `[H]/N=C(\N/C(=N/[H])NCCCCCCNC(=N)NC(=N)Nc1ccc(Cl)cc1)Nc1ccc(Cl)cc1` [CHX, chlorhexidine], the “% OD reduction” value in assay [1] (OD 600 nm vs PBS control, CHX 0.12%, one minute, two times a day) came to 84%; in assay [1] (SLS combination experiment, OD 600 nm, CHX 0.1% (1000 ppm)) it was 94%. Also, the pH in assay [1] (SLS combination experiment, CHX 0.1% (1000 ppm)) turned out to be 8.8; in assay [1] (medium pH day 4, CHX 0.12%, exposure one minute, two times a day), 8.8.
On to `N=C(NCCCCCCNC(=N)NC(=N)Nc1ccc(Cl)cc1)NC(=N)Nc1ccc(Cl)cc1.O=C(O)[C@H](O)[C@@H](O)[C@H](O)[C@H](O)CO.O=C(O)[C@H](O)[C@@H](O)[C@H](O)[C@H](O)CO` [Chlorhexidine gluconate, reference compound], for which the MIC/ppm with S. mutans was 2 ppm. In addition, the “MIC (ppm)” value in the assay on incubated saliva was 2 ppm.
As to `CCCCCCCCCCCCOS(=O)(=O)[O-].[Na+]` [SLS, sodium lauryl sulfate], the “% OD reduction” value in assay [1] (SLS combination experiment, OD 600 nm, 1000 ppm) is 61%. The pH in assay [1] (SLS combination experiment, 1000 ppm) was 5.7. For the same compound, the germ-kill efficacy result in the assay on incubated saliva is “good germ-kill surface active agents”.
On to `CCCCCCCCCCCC(=O)OCCOCCOCCOCCOCCOCCOCCOCCOCCOCCOCCOCCOCCOCCOCCOCCOCCOCCOCCOCCOCC(OCCOCCOCCOCCOCCOCCOCCOCCOCCOCCOCCOCCOCCOCCOCCOCCOCCOCCOCCOCCO)C1OCC(OCCOCCOCCOCCOCCOCCOCCOCCOCCOCCOCCOCCOCCOCCOCCOCCOCCOCCOCCOCCO)C1OCCOCCOCCOCCOCCOCCOCCOCCOCCOCCOCCOCCOCCOCCOCCOCCOCCOCCOCCOCCO` (stereo not shown) [Tween 20, Polysorbate 20], for which, in the assay with incubated saliva, the germ-kill efficacy entry was “weak or non germ-kill actives”.
Same read-out and setting: for Cocamidopropyl Betaine the value was “good germ-kill surface active agents”.
For Sodium Brasslate, in the assay on incubated saliva, the germ-kill efficacy entry is “moderate germ-kill efficacy” and the “MIC (ppm)” value stood at 500 ppm.
On to Sodium Stearoyl Lactylate, for which, in the assay with incubated saliva, the germ-kill efficacy result is “weak or non germ-kill actives” and the “MIC (ppm)” value is listed as over 3000 ppm.
On the same counts, the results for Sucrose Distearate are “weak or non germ-kill actives” and over 500 ppm.
On the same counts, the results for Sucrose Stearate are “weak or non germ-kill actives” and over 500 ppm.
